Measurements taken from US20230255873A1, “COSMETIC OR DERMATOLOGICAL PEPTIDE-BASED TREATMENT OF THE SKIN AND ITS INTEGUMENTS” (Sederma, priority 2020, published 2023).
The star is where a group is joined. Palmitoyl = CCCCCCCCCCCCCCCC(=O)*

How the values were obtained:
NHKs exposed to UVB = experiment: ELISA of pro-inflammatory mediators (PGE2 and IL-6) on NHK exposed to UVB; format: cell-based, human
Description: 1.1—Immuno-Enzymatic Assays (ELISA) on Normal Human Keratinocyte (NHK) Culture Principle: NHKs in culture and at confluence are brought into contact with the peptide of the invention at different concentrations for 24 hours in a medium allowing their survival. Then the cell layers are irradiated with UVB (light stress, intended to mimic an experimental cutaneous micro-inflammation) in a physiological buffer and again brought into contact with the products to be tested for 24 hours. At the end of this incubation, the culture media are assayed by ELISA to evaluate the amounts of pro-inflammatory mediators (PGE2 and IL-6) produced by these cells in response to irradiation. The results are compared to the control. A decrease in the amount of mediators produced will be interpreted as a limitation of damages related to inflammation. An estimate of the cell number is made on the attached layer to reduce the assay results to the number of cells. A study of variances and a Student t test are carried out to judge the significance of the results.

S. epidermidis = S. epidermidis growth (selectivity test); format: cell-based; settings: 6 ppm and 12 ppm, 48 hours
Description: S. epidermidis was inoculated in an appropriate medium and its growth was followed over time. The peptide according to the invention (6 ppm and 12 ppm) was tested on these cells for 48 hours in comparison with the control case (n=6).

[1] = test system: normal human keratinocytes (NHK); experiment: Involucrin quantification by immunohistochemistry in NHK; format: cell-based; settings: 5 ppm
Description: Normal human keratinocytes (NHK) are grown on wells plate. When subconfluence was reached, cells received various concentrations of the peptides. After few days, evaluation of differentiation is compared to solvent control under microscope and cells are fixed to allow the study of involucrin by immunohistochemistry.
Involucrin is an early marker of keratinocytes differentiation. The below table show the percentage of variation of involucrin vs. Control.

[2] = test system: normal human keratinocytes (NHK); experiment: DNA Microarray on NHK culture; format: cell-based; settings: 9 ppm, 24 hours, confluent NHKs
Description: 1.2—DNA Microarray-Technology NHK Culture Principle: the peptide according to the invention at 9 ppm is brought into contact for 24 hours with confluent NHKs (versus control case). Then the NHKs layers are rinsed, and the cells are crushed to extract their mRNA. These mRNAs are then converted into DNA sequences which are analyzed after deposition on DNA chips and amplification by a method similar to qRT-PCR (Real-time Quantitative Reverse Transcription Polymerase Chain Reaction). The mRNA variations due to the peptide are compared to the control case (the solvent of the peptide). The results are expressed as an expression ratio between the treated case and the control case. A ratio greater than 2 is considered to be induction of gene expression ([…]).

HaCaTs = experiment: Scratch test on HaCaTs (keratinocyte migration, with or without P. acnes); format: cell-based, human; settings: 24 hours after injury
Description: 1.5—Scratch Test on HaCaTs
Principle: HaCats are inoculated in a 6-well plate in a suitable medium until confluence. 24-hour contact with the peptide according to the invention (test cases) or its excipient (control case) in the culture medium is then carried out. After this first step, wounds are made on the cell layers in the experimental wells (with a dedicated tool to make reproducible and small wounds); two wells per case are dedicated to cell counting; rinsing with PBS and an addition of culture medium with or without the peptide according to the invention depending on the case, in the presence or absence of Propionibacterium acnes (100 bacteria for 1 HaCaT cell) are carried out. Photos are taken (to calculate the area of the wound at T0 over a specific area). The cultures are stopped after 24 hours of incubation and photos are taken on the same areas as at T0. A photo processing software (Image J) can calculate for each case the area at T0 and the area recolonized by cells, 24 hours after injury, and establish a ratio.

[3] = test system: HaCaT (human keratinocyte line); experiment: ELISA assay of hyaluronic acid on HaCaT culture; format: cell-based; settings: 72 hours of contact
Description: This same type of test was carried out on a HaCaT culture (human keratinocyte line), but without the irradiation step, with a contact time of 72 hours between the cells and the peptide of the invention and an ELISA assay of hyaluronic acid on the culture medium.

[4] = test system: extracellular lipases of P. acnes; experiment: Lipase activity of P. acnes (4-MUO probe); format: biochemical, Propionibacterium acnes; settings: vs solvent control, n = 6
Description: A culture of P. acnes was carried out. The cells were then separated from the culture medium containing the lipases excreted by P. acnes. The peptide of the invention was added to samples of this cell-free medium and lipase activity was monitored using a fluorescent 4-methylumbelliferyl oleate (4-MUO) probe which is converted by lipases to fluorescent 4-methylumbelliferone, and whose signal has been recorded.

## palmitoyl-lysyl-threonyl-serine-lysyl-serine (Palmitoyl-KTSKS-OH; SMILES CCCCCCCCCCCCCCCC(=O)N[C@@H](CCCCN)C(=O)N[C@H](C(=O)N[C@@H](CO)C(=O)N[C@@H](CCCCN)C(=O)N[C@@H](CO)C(=O)O)[C@@H](C)O) [Pal-KTSKS]
NHKs exposed to UVB; 3 ppm
  IL6 secretion, variation compared to the control: −4% (nsd)
  PGE2 secretion, variation compared to the control: +1% (nsd)
NHKs exposed to UVB; 10 ppm
  IL6 secretion, variation compared to the control: −33% (p < 0.01)
  PGE2 secretion, variation compared to the control: −41% (p < 0.01)
NHKs exposed to UVB; 15 ppm
  IL6 secretion, variation compared to the control: −65% (p < 0.01)
  PGE2 secretion, variation compared to the control: −63% (p < 0.01)
S. epidermidis
  Growth of S. epidermidis relative to control: slight, temporary slowdown in growth
[1]
  Involucrin (% var vs. Control): +177%; p < 0.01
[2]
  Expressed gene ABHD5 (1-acylglycerol-3-phosphate O-acyltransferase): variation compared to the control: ×2.14
  Expressed gene ANXA1 (Annexin A1): variation compared to the control: ×3.05
  Expressed gene AQP5 (Aquaporin 5): variation compared to the control: ×3.11
  Expressed gene CALML5 (Calmodulin-like protein-5): variation compared to the control: ×10.73
  Expressed gene CERS3 (Ceramide synthase 3): variation compared to the control: ×2.38
  Expressed gene CGNL1 (Cingulin-like protein-1): variation compared to the control: ×26.40
  Expressed gene CLDN7 (Claudin): variation compared to the control: ×7.24
  Expressed gene CLDN23 (Claudin): variation compared to the control: ×2.69
  Expressed gene CRNN (Cornulin): variation compared to the control: ×258.60
  Expressed gene DEFB1 (Beta-1-defensin): variation compared to the control: ×4.48
  Expressed gene DEFB103B (Human beta defensin-3): variation compared to the control: ×337.87
  Expressed gene DMKN (Dermokin): variation compared to the control: ×3.58
  Expressed gene ELOVL4 (3-keto acyl-CoA synthase): variation compared to the control: ×5.06
  Expressed gene FLG2 (Filaggrine-2): variation compared to the control: ×197
  Expressed gene HMOX1 (Heme Oxygenase-1): variation compared to the control: ×29.27
  Expressed gene IL37 (Interleukin-37): variation compared to the control: ×7.82
  Expressed gene IVL (Involucrin): variation compared to the control: ×8.43
  Expressed gene KLK5 (Kallikrein 5): variation compared to the control: ×2.2
  Expressed gene LCE2C: variation compared to the control: ×37.7
  Expressed gene LCE3A (Late Cornified Envelop Protein): variation compared to the control: ×306.86
  Expressed gene LCE3B: variation compared to the control: ×324.01
  Expressed gene LCE3D: variation compared to the control: ×1454.67
  Expressed gene LOR (Loricrin): variation compared to the control: ×193
  Expressed gene OCLN (Occludin): variation compared to the control: ×8.65
  Expressed gene PADI-1 (Peptidyl Arginin Deaminase): variation compared to the control: ×185.61
  Expressed gene PI3 (Elafin): variation compared to the control: ×7.73
  Expressed gene PRSS8 (Serine protease-8): variation compared to the control: ×2.74
  Expressed gene RNASE7 (RNase 7): variation compared to the control: ×40.85
  Expressed gene S100A7 (Psoriasin): variation compared to the control: ×15.73
  Expressed gene SPINK5 (Serine protease inhibitor Kazal-type 5): variation compared to the control: ×3.77
  Expressed gene SPRR1A (Small Proline Rich Region Protein): variation compared to the control: ×2.00
  Expressed gene SPRR2A: variation compared to the control: ×24.09
  Expressed gene SPRR2B: variation compared to the control: ×451.61
  Expressed gene SPRR2C: variation compared to the control: ×15.35
  Expressed gene SPRR2D: variation compared to the control: ×23.97
  Expressed gene SPRR2E: variation compared to the control: ×12.48
  Expressed gene SPRR2F: variation compared to the control: ×15.29
  Expressed gene SPRR2G: variation compared to the control: ×687.57
  Expressed gene SPRR3: variation compared to the control: ×48.62
  Expressed gene SPRR4: variation compared to the control: ×23.16
  Expressed gene TGM1 (Transglutaminase-1): variation compared to the control: ×4.66
  Expressed gene TGM5 (Transglutaminase-5): variation compared to the control: ×27.1
  Expressed gene TIMP1 (Metallopeptidase inhibitor 1): variation compared to the control: ×3.68
  Expressed gene TIMP2 (Metallopeptidase inhibitor 2): variation compared to the control: ×5.96
  Expressed gene TJP1 (Tight junction protein ZO-1): variation compared to the control: ×2.02
HaCaTs; With P. acnes (Reference 2), 5 ppm of peptide
  Keratinocyte migration, variation compared to the control: −49.67%
HaCaTs; With P. acnes (Reference 2), 7 ppm of peptide
  Keratinocyte migration, variation compared to the control: −66.15%
HaCaTs; Without P. acnes, 5 ppm of peptide
  Keratinocyte migration, variation compared to the control: −3% (nsd)
HaCaTs; Without P. acnes, 7 ppm of peptide
  Keratinocyte migration, variation compared to the control: −0.36% (nsd)
[3]; 6 ppm
  Secretion of hyaluronic acid, Variation %/non treated cells: +33%; p < 0.01
[3]; 8 ppm
  Secretion of hyaluronic acid, Variation %/non treated cells: +42%; p < 0.01
[3]; 10 ppm
  Secretion of hyaluronic acid, Variation %/non treated cells: +62%; p < 0.01
[3]; 15 ppm
  Secretion of hyaluronic acid, Variation %/non treated cells: +107%; p < 0.01
[4]; 6 ppm of peptide
  Lipase activity of P. acnes, Variation (%): −22%; p < 0.01
[4]; 9 ppm of peptide
  Lipase activity of P. acnes, Variation (%): −64%; p < 0.01
[4]; 12 ppm of peptide
  Lipase activity of P. acnes, Variation (%): −88%; p < 0.01
